Reference: US20250066807A1, “CYP72A219 GENES CONFERRING HERBICIDE TOLERANCE” (COLORADO STATE UNIVERSITY RESEARCH FOUNDATION, priority 2021, published 2025)
Entries after “also recorded” stand apart in the source; their conditions may differ.

Columns and labels:
[1] = system: CYP81E gene (SEQ ID NO: 9); experiment: tembotrione metabolism in yeast expressing CYP81E; assay type: in vitro ADME, Amaranthus palmeri; details: CYP81E SEQ ID NO: 9 vector; 150 μL of 1000 μM tembotrione, 24 h, 30 C; FIG. 3F
Description: (§1) A functional validation of the candidate genes was conducted in a yeast system. In brief, the yeast lines WAT11 and WAT21 express the plant cytochrome P450 reductase genes ATR1 and ATR2, respectively, and have the endogenous yeast cytochrome P450 reductase gene knocked out. The sequences of the three CYP72A219 genes and the CYP81E gene were codon-optimized for expression in yeast and synthesized by Genewiz in vector pUC57. The genes were cloned into yeast expression vector pYES2 with a galactose inducible promoter, a uracil synthesis gene, and an ampicillin resistance gene. The vectors were first transformed into E. coli and selected on ampicillin, followed by sequencing to confirm the correct insertion of the P450 gene sequence. Plasmid was extracted from transformed colonies for transformation into yeast lines WAT11 and WAT21 using a LiAc protocol and plated on glucose-containing media lacking uracil to select for transformed cells. The empty pYES2 vector was included as a negative control, and a vector containing the Nsf1 gene from corn was included as a positive control known to metabolize the HPPD-inhibiting herbicides mesotrione and tembotrione. […] The incubation solution was then centrifuged, and the supernatant was analyzed using LC/MS-MS to measure parent tembotrione and hydroxy tembotrione metabolites. […]

[2] = system: CYP72A219 (a), CYP72A219 (b), CYP72A219 (c) and CYP81E genes; design: species or system Amaranthus palmeri; details: in vivo
[3] = system: a CYP not implicated in herbicide resistance; design: species or system Amaranthus palmeri; details: in vivo
Description: (§2) Transcript abundance was measured in the 11 resistant survey populations for genes CYP72A219 (a), CYP81E, and a CYP not implicated in herbicide resistance (FIG. 4B-D). Known sensitive populations HPPD S and HPPD S 12021 were included as references, as was known resistant population HPPD R 12001, the population previously characterized for increased expression of CYP72A219 (a) and CYP81E. Relative transcript abundance was quantified using qRT-PCR on cDNA synthesized from RNA extracted from individuals before and 6 h after tembotrione treatment, using normalization genes as previously described.

[4] = system: CYP81E; design: species or system Amaranthus palmeri; details: in vivo
Description: as §2

[5] = system: CYP72A219 (a); design: species or system Amaranthus palmeri; details: in vivo
Description: as §2

[6] = system: CYP81E and CYP72A219 genes; design: species or system Amaranthus palmeri; details: in vivo
[7] = system: variant allele of this CYP72A219 gene (SEQ ID NO: 3); experiment: tembotrione metabolism in yeast expressing variant allele of CYP72A219 (a); assay type: in vitro ADME, Amaranthus palmeri; details: variant allele SEQ ID NO: 3 vector; 150 μL of 1000 μM tembotrione, 24 h, 30 C
Description: as §1

[8] = system: CYP72A219 gene from chromosome 16 (SEQ ID NO: 7); experiment: tembotrione metabolism in yeast expressing CYP72A219 (c); assay type: in vitro ADME, Amaranthus palmeri; details: SEQ ID NO: 7 vector; 150 μL of 1000 μM tembotrione, 24 h, 30 C; FIG. 3D-E
Description: as §1

[9] = system: Palmer amaranth (Amaranthus palmeri); details: in vivo; cited from earlier work
[10] = system: yeast lines WAT11 and WAT21; experiment: tembotrione metabolism in yeast with empty pYES2 vector (negative control); assay type: in vitro ADME; details: 150 μL of 1000 μM tembotrione, 24 h, 30 C, FIG. 3A
Description: as §1

[11] = system: CYP72A219 gene from chromosome 4 (MAKER-25717; SEQ ID NO: 1); experiment: tembotrione metabolism in yeast expressing CYP72A219 (a); assay type: in vitro ADME, Amaranthus palmeri; details: CYP72A219 SEQ ID NO: 1 vector; 150 μL of 1000 μM tembotrione, 24 h, 30 C; FIG. 3C
Description: as §1

[12] = system: Palmer amaranth; experiment: tembotrione dose response (plant survival) of Palmer amaranth survey populations; assay type: in vivo, Amaranthus palmeri; details: eleven survey populations; FIG. 4A
Description: A survey of Palmer amaranth in the US was conducted to identify additional populations resistant to the HPPD inhibiting herbicide tembotrione. A tembotrione dose response was conducted to compare the response of the survey populations to a known sensitive population. The population USA 12001 (the population used for all previous work to identify CYP450 genes) was used as a known resistant reference.

[13] = system: second CYP72A219 gene from chromosome 4 (SEQ ID NO: 5); experiment: tembotrione metabolism in yeast expressing CYP72A219 (b); assay type: in vitro ADME, Amaranthus palmeri; details: SEQ ID NO: 5 vector; 150 μL of 1000 μM tembotrione, 24 h, 30 C; FIG. 3D-E
Description: as §1

CS(=O)(=O)c1ccc(C(=O)C2C(=O)CCCC2=O)c(Cl)c1COCC(F)(F)F [tembotrione, 2-[2-chloro-4-(methylsulfonyl)-3-[(2,2,2,-tri-fluoroethoxy)methyl]benzoyl]-1,3-cyclo-hexanedione]
formation of hydroxy-tembotrione [1]: did not show formation of hydroxy-tembotrione | expression of all four cytochrome P450 genes following tembotrione treatment [2]: induced | expression of CYP unrelated to herbicide resistance before or after tembotrione treatment [3]: had not increased expression in any populations | CYP81E expression constitutively or after tembotrione treatment [4]: No resistant populations from the survey had increased expression of CYP81E | CYP72A219 (a) expression following tembotrione treatment [5]: increased CYP72A219 (a) expression | expression of both genes after treatment with tembotrione (qRT-PCR) [6]: high expression of both genes | formation of hydroxy-tembotrione metabolite [7]: also showed formation of the hydroxy-tembotrione metabolite | formation of hydroxy-tembotrione [8]: did not show formation of hydroxy-tembotrione | detoxification to 4-hydroxy tembotrione metabolite followed by glycosylation [9]: rapidly detoxify | formation of 4-hydroxy tembotrione metabolites in NES [9]: at a slower rate than in NER | rate of hydroxylation, NER compared with NES [9]: more rapidly in NER | parent tembotrione and hydroxy tembotrione metabolites in supernatant (LC/MS-MS) [10]: only intact tembotrione and no metabolites; also recorded: did not detoxify tembotrione | formation of hydroxy-tembotrione metabolite [11]: showed formation of the hydroxy-tembotrione metabolite; also recorded: produced the same hydroxy-tembotrione metabolite as produced in planta | LD50 (dose of tembotrione required to cause 50% mortality in the population) relative to reference sensitive population [12]: significantly higher LD50 | formation of hydroxy-tembotrione [13]: did not show formation of hydroxy-tembotrione
